Calls of active or inactive are those of the source. No rule for the calls is given here.
Test system: M. tuberculosis H37Rv growth inhibition with meropenem
Test: dose response, H37Rv, with and without meropenem (AID 434987);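 also: growth over 7 days at 37 °C before Alamar Blue read on day 9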
[1] = M. tuberculosis H37Rv growth inhibition, measured here: IC50 without meropenem
[2] = M. tuberculosis H37Rv growth inhibition, measured here: IC90 without meropenem
[3] = measured here: IC90 with meropenem

Row | Structure (SMILES) | IC50 | IC50 [1] [µM] | IC90 [2] [µM] | IC90 [3] [µM]
1 | COc1cc(C(=S)N2CCOCC2)ccc1OC(=O)c1ccc([N+](=O)[O-])cc1[N+](=O)[O-] | 3.24 µM (inactive) | 6.01 | 7.13 | 5.92
2 | O=C1COc2ccc(C(=O)CCl)cc2N1 | 25.7 µM (inactive) | 24.7 | 27 | 44.4
3 | O=C(Cc1cccc2ccccc12)N/N=C/c1ccc(OC(=O)/C=C/c2ccco2)cc1 | 69 µM (inactive) | > 100 | > 100 | > 100
4 | COCCCNCCOCCOc1ccc(C)cc1Br | > 100 µM (inactive) | > 100 | > 100 | > 100
5 | COc1cccc(/C=C/c2[nH]c(=O)[nH]c(=O)c2[N+](=O)[O-])c1O | 9.24 µM | 24.2 | 26.6 | 15.9
6 | COC(=O)C1=C(C)NC(=O)/C1=C\c1cc(C)n(-c2c(C)cccc2C)c1C | 88 µM (inactive) | > 100 | > 100 | 99.8
7 | COc1ccc(OC)c(C2CC(c3c(-c4ccccc4)c4cc(Cl)ccc4[nH]c3=O)=NN2S(C)(=O)=O)c1 (centres undefined) | > 100 µM (inactive) | > 100 | > 100 | > 100
8 | O=C1/C(=C/C=C/c2ccco2)SC(=S)N1c1ccc(O)cc1 | > 100 µM (inactive) | > 100 | > 100 | > 100
9 | CCOC(=O)c1c(C)[nH]c(C)c1C(=O)COC(=O)c1ccc(S(=O)(=O)N(CC)CC)cc1 | 92.6 µM (inactive) | > 100 | > 100 | > 100
10 | CC1=Nc2ccccc2/C1=C\c1nc(-c2ccc(F)cc2)oc1O | 3.73 µM | 93.7 | > 100 | > 100
11 | Cn1c(=O)c(C(=O)COC(=O)c2cc(C3CC3)nc3ccccc23)c(N)n(Cc2ccccc2)c1=O | > 100 µM (inactive) | > 100 | > 100 | > 100
12 | Cc1cccc(NC(=O)c2nc[nH]c2C(=O)N[C@@H](CC(C)C)C(=O)OCc2ccccc2)c1 | 9.43 µM | 26.1 | 51.8 | > 100
13 | COc1ccccc1C(=O)Nc1sc2c(c1C(=O)NCc1ccco1)CCCC2 | > 100 µM (inactive) | > 100 | > 100 | > 100
14 | C/C(=N\NC(=O)c1cccc(Cl)c1)c1cccc(NC(=O)C(C)C)c1 | > 100 µM (inactive) | > 100 | > 100 | > 100
15 | O=C(Nc1ccc(OC(=O)c2ccccc2)c(-c2nc3ccccc3s2)c1)c1ccccc1 | > 100 µM (inactive) | > 100 | > 100 | > 100
16 | COc1cccc(/C=N/NC(=O)NC23CC4CC(CC(C4)C2)C3)c1O | 2.93 µM | 46.9 | > 100 | 26.8
17 | CC1CN(C(=S)NC(=O)c2cccc([N+](=O)[O-])c2)CC(C)O1 (centres undefined) | 11.8 µM | 42.3 | > 100 | > 100
18 | COc1cc2nc(N3CCN(C(=O)OCc4ccccc4)[C@H](C(=O)NC(C)(C)C)C3)nc(N)c2cc1OC | 64.5 µM (inactive) | 65 | 92.7 | 84
19 | CCCC(C)NC(=O)c1ccccc1SC (centres undefined) | 36.4 µM (inactive) | 58.5 | > 100 | > 100
20 | O=c1oc(CCCO)cc2ccc(C#Cc3ccsc3)cc12 | > 100 µM (inactive) | > 100 | > 100 | > 100
21 | O=C(CN1CCC(O)(c2ccc3c(c2)OCO3)CC1)OC1CCCCC1 | 12.8 µM | 38.5 | > 100 | 35.3

Row | Structure (SMILES) | IC50 | IC50 [1] [µM] | IC90 [2] [µM] | IC90 [3] [µM]
22 | Cc1ccccc1C(=O)NC(=S)Nc1sc2c(c1C#N)CCC(C)C2 (centres undefined) | > 100 µM (inactive) | > 100 | > 100 | > 100
23 | COc1ccc(/C=C2/CCCC(C(=O)C(F)(F)F)=C2O)cc1OC | 34.6 µM | 96.9 | > 100 | > 100
24 | NS(=O)(=O)c1ccc(O)c(NC(=O)c2ccc([N+](=O)[O-])o2)c1 | 12.7 µM (inactive) | 27.2 | > 100 | > 100
25 | c1ccc2nc(-c3nc4ccccc4o3)ccc2c1 | 43.9 µM (inactive) | > 100 | > 100 | > 50
26 | Cc1onc(-c2c(Cl)cccc2Cl)c1/C(N)=N/OC(=O)C1CC1 | 2.05 µM | > 100 | > 100 | > 25
27 | CCOC(=O)COc1nc(-c2ccc(Cl)cc2)cc(-c2ccco2)c1C#N | 3.82 µM | > 100 | > 100 | > 100
28 | CC(=O)Nc1cccc(/C(C)=N/NC(N)=S)c1 | 7.9 µM | > 100 | > 100 | 28.6
29 | COc1ccc(/C=C/C(=O)NCC(=O)N/N=C/c2cc(Br)ccc2OCc2ccccc2)cc1 | > 100 µM (inactive) | > 100 | > 100 | > 100
30 | COc1ccc(CCNCc2csc3nc4ccccc4n23)cc1OC | 50 µM (inactive) | 93.7 | > 100 | > 100
31 | CC(=O)NC(c1cc(Cl)c2cccnc2c1O)C1CC1 (centres undefined) | 23.1 µM | 73.3 | > 100 | > 100
32 | CCOC(=O)[C@H]1[C@H]2COc3ccc(Br)cc3[C@@H]2N2C(=O)c3cc(OC)c(OC)cc3NC(=O)[C@@]12C | > 50 µM (inactive) | 80.9 | > 100 | > 50
33 | O=C(CN1CCN(c2ccc(F)cc2)CC1)Nc1ccccc1C(=O)NCCc1ccccc1 | 35.1 µM | > 100 | > 100 | > 100
34 | CC1(c2ccc([N+](=O)[O-])cc2)NC(=O)N(CC(=O)c2ccc3c(c2)OCO3)C1=O (centres undefined) | > 100 µM (inactive) | > 100 | > 100 | > 100
35 | NC(=O)C1CCCN(C(=O)c2ccc(NC(=O)c3cccs3)cc2)C1 (centres undefined) | > 100 µM (inactive) | > 100 | > 100 | > 100
36 | CC(=O)c1ccc(N2CCN(c3ncc(C(F)(F)F)cc3Cl)CC2)cc1 | > 100 µM (inactive) | > 100 | > 100 | > 100
37 | N#Cc1ccc(NC(=O)COC(=O)C2=COCCO2)cc1 | > 100 µM (inactive) | > 100 | > 100 | > 100
38 | COc1ccc(-c2csc(NC(CO)c3nc4ccccc4n3Cc3ccc(C)cc3)n2)cc1 (centres undefined) | 25 µM (inactive) | 48.4 | 57.2 | 26.4
39 | CCOc1ccc(NC(=S)Nc2cccnc2)cc1 | 89.5 µM (inactive) | > 100 | > 100 | > 100
40 | CC(C)Cn1c2c(c(O)c(C(=O)Nc3ccc(F)cc3)c1=O)CCCC2 | 82.2 µM (inactive) | > 100 | > 100 | > 100
41 | CCC(CC)Nc1ccc(C(CC(N)=O)NC(=O)c2ccccc2)cc1[N+](=O)[O-] (centres undefined) | > 100 µM (inactive) | > 100 | > 100 | > 100

Reference: PubChem BioAssay AID434987 (Southern Research Specialized Biocontainment Screening …, 2010)
